Reference: PubChem BioAssay AID2060610 (Molecular Pharmacology Branch, DTP, NCI, 2025)
Where “and” joins values, the source holds several entries; their conditions need not be identical. Equal values may be shown once.

Test system: 616215-338-R-J1-PDC complex spheroids, viability % test/control
Assay: Anticancer human tumor 616215-338-R-J1-PDC patient-derived colon adenocarcinoma cell line growth inhibition [CLK]
Conditions: for viability, T/C: stronger effect = lower value
How it was run: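 Patient-derived tumor cells grown as complex spheroids with HUVEC endothelial cells and mesenchymal stem cells, treated with drug combinations. Concentrations descend in half-log steps from near clinical Cmax, or from 10 microM if Cmax unknown.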

[1] = curve of first compound, second compound 0.0316 µM
[2] = curve of first compound, second compound 0.1 µM
[3] = curve of first compound, second compound 0.316 µM
[4] = curve of first compound, second compound 1 µM
[5] = curve of first compound, second compound 3.16 µM
[6] = curve of first compound, second compound 10 µM
[7] = second compound 0.0316 µM, first compound 0.0316 µM
[8] = second compound 0.0316 µM, first compound 0.1 µM
[9] = second compound 0.0316 µM, first compound 0.316 µM
[10] = second compound 0.0316 µM, first compound 1 µM
[11] = second compound 0.0316 µM, first compound 3.16 µM
[12] = second compound 0.0316 µM, first compound 10 µM
[13] = second compound 0.1 µM, first compound 0.0316 µM
[14] = second compound 0.1 µM, first compound 0.1 µM
[15] = second compound 0.1 µM, first compound 0.316 µM
[16] = second compound 0.1 µM, first compound 1 µM
[17] = second compound 0.1 µM, first compound 3.16 µM
[18] = second compound 0.1 µM, first compound 10 µM
[19] = second compound 0.316 µM, first compound 0.0316 µM
[20] = second compound 0.316 µM, first compound 0.1 µM
[21] = second compound 0.316 µM, first compound 0.316 µM
[22] = second compound 0.316 µM, first compound 1 µM
[23] = second compound 0.316 µM, first compound 3.16 µM
[24] = second compound 0.316 µM, first compound 10 µM
[25] = second compound 1 µM, first compound 0.0316 µM
[26] = second compound 1 µM, first compound 0.1 µM
[27] = second compound 1 µM, first compound 0.316 µM
[28] = second compound 1 µM, first compound 1 µM
[29] = second compound 1 µM, first compound 3.16 µM
[30] = second compound 1 µM, first compound 10 µM
[31] = second compound 3.16 µM, first compound 0.0316 µM
[32] = second compound 3.16 µM, first compound 0.1 µM
[33] = second compound 3.16 µM, first compound 0.316 µM
[34] = second compound 3.16 µM, first compound 1 µM
[35] = second compound 3.16 µM, first compound 3.16 µM
[36] = second compound 3.16 µM, first compound 10 µM
[37] = second compound 10 µM, first compound 0.0316 µM
[38] = second compound 10 µM, first compound 0.1 µM
[39] = second compound 10 µM, first compound 0.316 µM
[40] = second compound 10 µM, first compound 1 µM
[41] = second compound 10 µM, first compound 3.16 µM
[42] = second compound 10 µM, first compound 10 µM
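Further: spheroids exposed to agents for 7 days.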
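Wherever viability, T/C is given: 100% = DMSO vehicle wells.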

C=CC(=O)N1CCN(c2nc(=O)n(-c3c(C)ccnc3C(C)C)c3nc(-c4c(O)cccc4F)c(F)cc23)C(C)C1 (stereo not given) + CN1CCN(c2cc(C(=O)Nc3cc4cc(-c5cnn(C)c5)ccc4cn3)ccn2)CC1 showed an IC50 [1] greater than 10000 nM, an IC50 [2] greater than 10000 nM and an IC50 [3] of less than 31.6 nM. For the same compound, the IC50 [4] was less than 31.6 nM, the IC50 [5] was less than 31.6 nM and the IC50 [6] was less than 31.6 nM. It also gave a viability, T/C [7] of 104%, a viability, T/C [8] of 116% and a viability, T/C [9] of 107%. It also gave a viability, T/C [10] of 104%, a viability, T/C [11] of 111% and a viability, T/C [12] of 102%. For the same compound, the viability, T/C [13] was 116%, the viability, T/C [14] was 113% and the viability, T/C [15] was 107%. It also gave a viability, T/C [16] of 114%, a viability, T/C [17] of 115% and a viability, T/C [18] of 110%. The viability, T/C [19] was 34.9%, the viability, T/C [20] was 43% and the viability, T/C [21] was 43.7%. The viability, T/C [22] was 50.9%, the viability, T/C [23] was 49.9% and the viability, T/C [24] was 28.1%. For the same compound, the viability, T/C [25] was 0.2%, the viability, T/C [26] was 0.5% and the viability, T/C [27] was 0.21%. The viability, T/C [28] was 0.2%, the viability, T/C [29] was 0.15% and the viability, T/C [30] was 0.24%. The viability, T/C [31] was 0.13%, the viability, T/C [32] was 1.31% and the viability, T/C [33] was 0.14%. For the same compound, the viability, T/C [34] was 0.14%, the viability, T/C [35] was 0.13% and the viability, T/C [36] was 1.21%. For the same compound, the viability, T/C [37] was 0.17%, the viability, T/C [38] was 0.19% and the viability, T/C [39] was 0.51%. It also gave a viability, T/C [40] of 0.2%, a viability, T/C [41] of 0.2% and a viability, T/C [42] of 0.17%.

For C=C(F)C(=O)N1CCN(c2nc(OCC3CCCN3C)nc3c2CCN(c2cccc4cccc(Cl)c24)C3)CC1CC#N (stereo not given), the viability, T/C (compound 0.0316 µM) was 101% and 104%, the viability, T/C (compound 0.1 µM) was 99.9% and 107% and the viability, T/C (compound 0.316 µM) was 96.3% and 110%. For the same compound, the viability, T/C (compound 1 µM) was 93.6% and 106%, the viability, T/C (compound 3.16 µM) was 116% and 114% and the viability, T/C (compound 10 µM) was 9.79% and 0.24%. The IC50 (curve of compound) was 6030 nM and 5890 nM.

For C=CC(=O)Nc1cc(Nc2nccc(-c3cn(C)c4ccccc34)n2)c(OC)cc1N(C)CCN(C)C, the viability, T/C (compound 0.000949 µM) was 108% and 95%, the viability, T/C (compound 0.003 µM) was 93.5% and 105% and the viability, T/C (compound 0.00949 µM) was 107% and 85.4%. For the same compound, the viability, T/C (compound 0.03 µM) was 95.3% and 86.5%, the viability, T/C (compound 0.0949 µM) was 134% and 90.5% and the viability, T/C (compound 0.3 µM) was 100% and 111%. For the same compound, the IC50 (curve of compound) was greater than 300 nM.

In the case of O=c1[nH]cc(F)c(=O)[nH]1, the viability, T/C (compound 0.0316 µM) is reported as 94% and 97.5%, the viability, T/C (compound 0.1 µM) is reported as 95.6% and 111% and the viability, T/C (compound 0.316 µM) is reported as 65.3% and 61.7%. The viability, T/C (compound 1 µM) was 44.4% and 46.8%, the viability, T/C (compound 3.16 µM) was 35.2% and 39.2% and the viability, T/C (compound 10 µM) was 39.2% and 43.4%. For the same compound, the IC50 (curve of compound) was 672 nM and 654 nM.

Work on C=C(F)C(=O)N1CCN(c2nc(OCC3CCCN3C)nc3c2CCN(c2cccc4cccc(Cl)c24)C3)CC1CC#N (stereo not given) + CN1CCN(c2cc(C(=O)Nc3cc4cc(-c5cnn(C)c5)ccc4cn3)ccn2)CC1 yielded an IC50 [1] of 5870 nM, an IC50 [2] of 6070 nM and an IC50 [3] of less than 31.6 nM. It also gave an IC50 [4] of less than 31.6 nM, an IC50 [5] of less than 31.6 nM and an IC50 [6] of less than 31.6 nM. For the same compound, the viability, T/C [7] was 102%, the viability, T/C [8] was 109% and the viability, T/C [9] was 105%. It also gave a viability, T/C [10] of 106%, a viability, T/C [11] of 116% and a viability, T/C [12] of 0.26%. For the same compound, the viability, T/C [13] was 114%, the viability, T/C [14] was 120% and the viability, T/C [15] was 107%. It also gave a viability, T/C [16] of 116%, a viability, T/C [17] of 119% and a viability, T/C [18] of 0.19%. For the same compound, the viability, T/C [19] was 35.1%, the viability, T/C [20] was 45.4% and the viability, T/C [21] was 40.2%. It also gave a viability, T/C [22] of 38.8%, a viability, T/C [23] of 11.3% and a viability, T/C [24] of 0.12%. The viability, T/C [25] was 0.28%, the viability, T/C [26] was 0.24% and the viability, T/C [27] was 0.31%. For the same compound, the viability, T/C [28] was 0.16%, the viability, T/C [29] was 0.14% and the viability, T/C [30] was 0.11%. The viability, T/C [31] was 0.16%, the viability, T/C [32] was 0.16% and the viability, T/C [33] was 0.16%. The viability, T/C [34] was 0.18%, the viability, T/C [35] was 2.55% and the viability, T/C [36] was 3.36%. For the same compound, the viability, T/C [37] was 0.24%, the viability, T/C [38] was 0.21% and the viability, T/C [39] was 0.22%. It also gave a viability, T/C [40] of 0.25%, a viability, T/C [41] of 1.31% and a viability, T/C [42] of 0.21%.
